This passage reports IC50 results from patent US8772500B2, “TRPV3 modulators” (AbbVie Inc., priority 2011, dated 2014).

The target in this experiment is T1, human TRPV3 (Homo sapiens, UniProt Q8NET8).
T1 construct: expressed in transfected cells
T1 sequence (Q8NET8 1-790): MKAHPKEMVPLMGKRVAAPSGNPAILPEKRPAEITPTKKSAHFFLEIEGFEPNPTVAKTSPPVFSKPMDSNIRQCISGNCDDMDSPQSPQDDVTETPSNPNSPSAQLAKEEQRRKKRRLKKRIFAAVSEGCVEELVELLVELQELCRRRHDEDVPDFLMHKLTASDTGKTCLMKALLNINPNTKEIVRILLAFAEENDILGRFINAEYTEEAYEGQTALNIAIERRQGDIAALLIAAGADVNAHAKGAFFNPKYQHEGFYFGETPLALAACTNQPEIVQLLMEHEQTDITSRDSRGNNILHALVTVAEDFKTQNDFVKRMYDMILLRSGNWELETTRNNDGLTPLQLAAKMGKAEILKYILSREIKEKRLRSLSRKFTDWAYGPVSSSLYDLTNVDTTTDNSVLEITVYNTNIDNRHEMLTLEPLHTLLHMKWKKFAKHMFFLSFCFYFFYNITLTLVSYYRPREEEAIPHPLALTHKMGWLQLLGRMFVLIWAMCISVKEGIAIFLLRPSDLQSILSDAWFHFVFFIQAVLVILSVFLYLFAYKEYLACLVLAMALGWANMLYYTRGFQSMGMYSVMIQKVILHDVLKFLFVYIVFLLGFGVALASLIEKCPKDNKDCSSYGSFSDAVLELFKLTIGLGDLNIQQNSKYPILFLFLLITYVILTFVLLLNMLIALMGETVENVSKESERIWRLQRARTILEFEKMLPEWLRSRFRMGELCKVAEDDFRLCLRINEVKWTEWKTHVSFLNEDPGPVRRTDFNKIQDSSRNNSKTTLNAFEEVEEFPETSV
Description: In vitro antagonism of recombinant human TRPV3 activation (FLIPR Tetra calcium assay, 2-APB as agonist). It is filed as cell-based. The conditions noted are these: HEK293 cells stably expressing human TRPV3; 2-APB 80 μM; range class; read-out: IC50 (reported range). How it is done:
Test compounds were evaluated for ability to antagonize the activation of recombinant human TRPV3 using FLIPR® Tetra cellular screening. Specifically, on the day prior to the experiment recombinant HEK293 cells that stably express human TRPV3 were removed from tissue culture flasks and plated in growth medium at 20,000 cells/well into Poly-d-lysine coated black/clear 384-well Plate (Corning, 3845) using a Multidrop® dispenser (ThermoScientific, Waltham, Mass.). Prior to the start of the assay, the medium was removed by aspiration, and cells were loaded with 30 μL no-wash FLIPR® Calcium-4 dye (λEX=470-495 nm, λEM=515-575 nm; Molecular Devices, Sunnyvale, Calif.). The cells were then incubated for 90-120 minutes in the dark prior to addition of the test compound.
A double-addition protocol was used. The test compound (i.e., the TRPV3 antagonist) was added at the 10 second time point, followed by the addition of a TRPV3 agonist three minutes later. Each test compound evaluated was first dissolved in DMSO to prepare a 10 mM stock solution. A solution (5×) of the test compound was then prepared in DPBS (Dulbecco's Phosphate Buffered Saline) and 10 μL of that solution was added to the cells at a delivery rate of 40 μL/sec. The TRPV3 agonist used to activate human TRPV3 expressed by the […] was 2-aminoethoxy-diphenyl borate (2-APB; Tocris Cookson, Ellisville, Mo.) at 80 μM. Final assay volume was 50 μL. Total length of an experimental run was 10 minutes.
Changes in fluorescence were measured over time using the FLIPR® instrument. The intensity of the fluorescence was captured and digitally transferred to an interfaced computer. The maximum response minus minimum response was calculated and expressed as the percentage of the maximum 2-APB response in the absence of antagonist. The concentration of 2-APB corresponds to its EC80.
Table 1 reports the IC50 values measured for the test compounds as human TRPV3 antagonists. […] Actual measured values are shown parenthetically after the reported range. In most cases, the values reported are average values from at least two runs (i.e., n≧2).
Consider `CC(c1cccc(F)c1)C1(C(O)c2ccccn2)CCC1` (centres unmarked) [Example 47, {1-[1-(3-fluorophenyl)ethyl]cyclobutyl}(pyridin-2-yl)methanol], for which the IC50 lay in the range of 1.1 to 5 µM.

For the compound `OC(c1ccccn1)C1(c2cccc(OC(F)(F)F)c2)CCOC1` (centres unmarked) [Example 80, pyridin-2-yl{3-[3-(trifluoromethoxy)phenyl]tetrahydrofuran-3-yl}methanol], the concentration for half-maximal inhibition (IC50) lay in the range of 1.1 to 5 µM.

On to `OC(c1ccccn1)C1(c2ccc(C(F)(F)F)cc2)CCOCC1` (centres unmarked) [Example 65, pyridin-2-yl{4-[4-(trifluoromethyl)phenyl]tetrahydro-2H-pyran-4-yl}-methanol], for which the IC50 lay in the range of 1.1 to 5 µM.

As to `NC1CCCCC1C(O)C1(c2ccc(C(F)(F)F)cc2)CCC1` (centres unmarked) [Example 207, (2-aminocyclohexyl){1-[4-(trifluoromethyl)phenyl]cyclobutyl}methanol], the IC50 lay in the range of 1.1 to 5 µM.

Take `OC(CC1(c2ccccc2)CCC1)c1ccccn1` (centres unmarked) [Example 68, 2-(1-phenylcyclobutyl)-1-(pyridin-2-yl)ethanol]: the IC50 was in the range of 1.1 to 5 µM.

Regarding `OC(c1ccccn1)C1(c2ccc(Cl)cc2)CCOCC1` (centres unmarked) [Example 64, [4-(4-chlorophenyl)tetrahydro-2H-pyran-4-yl](pyridin-2-yl)methanol], the IC50 fell in the range of 1.1 to 5 µM.

Take `OC(c1ccccn1)C1(c2cccc(Cl)c2)COC1` (centres unmarked) [Example 86, [3-(3-chlorophenyl)oxetan-3-yl](pyridin-2-yl)methanol]: the concentration for half-maximal inhibition (IC50) lay in the range of 1.1 to 5 µM.

As to `OC(c1ncccn1)C1(c2ccc(F)c(F)c2)CCC1` (centres unmarked) [Example 35, [1-(3,4-difluorophenyl)cyclobutyl](pyrimidin-2-yl)methanol], the IC50 is 5.1 to 20 µM.

Take `OC(CC1(c2cccc(F)c2)CCC1)c1ccccn1` (centres unmarked) [Example 71, 2-[1-(3-fluorophenyl)cyclobutyl]-1-(pyridin-2-yl)ethanol]: the IC50 lay within 1.1 to 5 µM.

On to `OC(CC1(c2ccc(F)cc2)CCC1)c1ccccn1` (centres unmarked) [Example 70, 2-[1-(4-fluorophenyl)cyclobutyl]-1-(pyridin-2-yl)ethanol], for which the IC50 lay in the range of 5.1 to 20 µM.

Regarding `OC(CC1(c2ccc(Cl)c(Cl)c2)CCC1)c1ccccn1` (centres unmarked) [Example 73, 2-[1-(3,4-dichlorophenyl)cyclobutyl]-1-(pyridin-2-yl)ethanol], the concentration for half-maximal inhibition (IC50) was in the range of 1.1 to 5 µM.

Regarding `OC(CC1(c2cccc(Cl)c2)CCC1)c1ccccn1` (centres unmarked) [Example 72, 2-[1-(3-chlorophenyl)cyclobutyl]-1-(pyridin-2-yl)ethanol], the half-maximal inhibitory concentration (IC50) lay in the range of 1.1 to 5 µM.

With `NC1CCCCC1C(O)C1(c2ccc(OC(F)(F)F)cc2)CCC1` (centres unmarked) [Example 209, (2-aminocyclohexyl){1-[4-(trifluoromethoxy)phenyl]cyclobutyl}methanol], the IC50 is 1.1 to 5 µM.

As to `OC(c1ncccn1)C1(c2cccc(F)c2)CCC1` (centres unmarked) [Example 33, [1-(3-fluorophenyl)cyclobutyl](pyrimidin-2-yl)methanol], the IC50 lay within 5.1 to 20 µM.

As to `CC(c1ccccc1F)C1(C(O)c2ccccn2)CCC1` (centres unmarked) [Example 48, {1-[1-(2-fluorophenyl)ethyl]cyclobutyl}(pyridin-2-yl)methanol], the IC50 was in the range of 5.1 to 20 µM.

Turning to `OC(c1ncccn1)C1(c2ccc(OC(F)(F)F)cc2)CCC1` (centres unmarked) [Example 31, pyrimidin-2-yl{1-[4-(trifluoromethoxy)phenyl]cyclobutyl}methanol], the half-inhibitory concentration (IC50) is 1.1 to 5 µM.

Regarding `OC(c1ncccn1)C1(c2ccccc2OC(F)(F)F)CCC1` (centres unmarked) [Example 36, pyrimidin-2-yl{1-[2-(trifluoromethoxy)phenyl]cyclobutyl}methanol], the IC50 fell in the range of 5.1 to 20 µM.

As to `CC(c1ccc(C(F)(F)F)cc1)C1(C(O)c2ccccn2)CCC1` (centres unmarked) [Example 53, pyridin-2-yl(1-{1-[4-(trifluoromethyl)phenyl]ethyl}cyclobutyl)methanol], the half-maximal inhibitory concentration (IC50) lay within 1.1 to 5 µM.

For the compound `CC(c1cccc(Cl)c1)C1(C(O)c2ccccn2)CCC1` (centres unmarked) [Example 44, {1-[1-(3-chlorophenyl)ethyl]cyclobutyl}(pyridin-2-yl)methanol], the IC50 is 5.1 to 20 µM.

On to `CC(c1ccccc1)C1(C(O)c2ccccn2)CCC1` (centres unmarked) [Example 51, [1-(1-phenylethyl)cyclobutyl](pyridin-2-yl)methanol], for which the IC50 was 5.1 to 20 µM.
